Reference: paper PMC5770610, “Structure and function of urea amidolyase” (Bioscience Reports, 2018)

Target: T1, KlAH (Kluyveromyces lactis, UniProt Q6CP22)
T1 construct: gene KLLA0_E08119g; isolated allophanate hydrolase (AH) part, N and C domains, N-terminal part of KlUA; recombinant; homodimer
Test: glutamate dehydrogenase-coupled NADH assay of ammonium
Type: biochemical
Conditions: AH activity; 6 mM MgCl2, 20 mM KCl, pH 8.0; substrate as potassium salt; read-out: Km^1
From the text: glutamate dehydrogenase-coupled NADH assay of ammonium on KlAH

T1 sequence (Q6CP22 entry or part of it): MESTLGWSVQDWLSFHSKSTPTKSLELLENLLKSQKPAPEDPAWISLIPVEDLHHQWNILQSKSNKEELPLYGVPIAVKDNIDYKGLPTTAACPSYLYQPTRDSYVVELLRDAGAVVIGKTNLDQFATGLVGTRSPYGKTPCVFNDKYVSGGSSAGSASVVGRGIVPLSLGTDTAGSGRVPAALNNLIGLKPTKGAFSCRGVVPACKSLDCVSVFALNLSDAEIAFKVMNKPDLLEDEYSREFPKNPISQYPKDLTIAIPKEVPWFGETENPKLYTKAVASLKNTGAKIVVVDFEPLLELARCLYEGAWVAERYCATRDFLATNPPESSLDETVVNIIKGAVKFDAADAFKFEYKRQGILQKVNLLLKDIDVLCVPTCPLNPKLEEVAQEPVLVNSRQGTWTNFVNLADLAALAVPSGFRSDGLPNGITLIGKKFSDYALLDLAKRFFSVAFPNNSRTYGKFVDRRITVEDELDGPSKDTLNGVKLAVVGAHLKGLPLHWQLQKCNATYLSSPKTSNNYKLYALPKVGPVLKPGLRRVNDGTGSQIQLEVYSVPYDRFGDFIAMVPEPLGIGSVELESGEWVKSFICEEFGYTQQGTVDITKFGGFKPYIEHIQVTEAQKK

- Km: 432 ± 60 µM
Structure (SMILES): NC(=O)NC(=O)O [allophanate]
